The target in one assay is T1, human 11β-HSD1 (Homo sapiens, UniProt P28845).
T1 construct: 100 ug/ml human/mouse liver microsomes; from tissue; host or cells: human liver microsomes
The experiment in a line: Enzyme activity analysis on human 11β-HSD1 (HTRF cortisol, liver microsomes). Type of assay: biochemical. As to conditions: first value of cell. The gist of the method:
(§1)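 Cortisol generated by mouse or human liver microsome 11β-HSD1 during 2 h at 37° C., measured by HTRF competition (cryptate anti-cortisol antibody, d2-cortisol, 2 h room temperature) against a cortisol standard curve. IC50 from percent inhibition versus no-compound control.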
On the technique in general: Time-resolved FRET reads energy transfer from a long-lived donor to a nearby acceptor.

The target of a further assay is T2, mouse 11β-HSD1 (Mus musculus, UniProt P50172).
T2 construct: 100 ug/ml human/mouse liver microsomes; from tissue; host or cells: mouse liver microsomes
T2 sequence (P50172 whole entry): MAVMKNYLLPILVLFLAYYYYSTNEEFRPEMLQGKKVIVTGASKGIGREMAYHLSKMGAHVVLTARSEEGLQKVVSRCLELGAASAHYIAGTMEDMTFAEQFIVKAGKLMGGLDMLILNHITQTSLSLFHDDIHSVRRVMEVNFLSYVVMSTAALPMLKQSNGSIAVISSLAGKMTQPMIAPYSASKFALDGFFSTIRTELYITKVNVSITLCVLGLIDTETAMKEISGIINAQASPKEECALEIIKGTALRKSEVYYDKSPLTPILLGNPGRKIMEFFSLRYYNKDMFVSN
The experiment in a line: Enzyme activity analysis on mouse 11β-HSD1 (HTRF cortisol, liver microsomes). The class given is biochemical. As to conditions: second value of cell. The gist of the method:
as §1

T1 sequence (P28845 whole entry): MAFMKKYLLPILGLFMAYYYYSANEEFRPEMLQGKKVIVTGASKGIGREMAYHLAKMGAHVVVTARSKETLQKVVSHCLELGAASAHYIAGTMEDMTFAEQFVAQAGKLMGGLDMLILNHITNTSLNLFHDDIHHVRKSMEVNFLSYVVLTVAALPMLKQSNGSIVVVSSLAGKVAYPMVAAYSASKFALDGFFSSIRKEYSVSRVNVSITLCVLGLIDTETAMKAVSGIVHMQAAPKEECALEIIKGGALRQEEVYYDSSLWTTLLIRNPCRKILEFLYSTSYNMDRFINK

In the case of `CC(C)(NS(=O)(=O)c1ccc([N+](=O)[O-])c(C(F)(F)F)c1)C(=O)NC1C2CC3CC1CC(C(N)=O)(C3)C2` (stereo not shown) [compound 113, N-4-(2-(3-trifluoromethyl-4-nitrophenylsulfonamido)-2-methylpropanamido)adamantane-1-carboxyamide], the half-maximal inhibitory concentration (IC50) (commonly the concentration that gives 50% inhibition) against human 11β-HSD1 is 0.208 µM; against mouse 11β-HSD1, 0.215 µM.

As to `NC(=O)C12CC3CC(C1)C(NC(=O)C1(NS(=O)(=O)c4c(Cl)cccc4Cl)CCCC1)C(C3)C2` (stereo not shown) [compound 175, N-4-(1-(2,6-dichlorophenylsulfonamido)cyclopentanecarboxyamido)adamantane-1-carboxyamide], the IC50 against human 11β-HSD1 turned out to be 0.006 µM; at mouse 11β-HSD1, 0.003 µM.

Regarding `CC(C)(NS(=O)(=O)Cc1ccccc1Cl)C(=O)NC1C2CC3CC1CC(C(N)=O)(C3)C2` (stereo not shown) [compound 98, N-4-(2-((2-chlorophenyl)methylsulfonamido)-2-methylpropanamido)adamantane-1-carboxyamide], the IC50 on human 11β-HSD1 and against mouse 11β-HSD1 was greater than 2.5 µM each time.

For the compound `NC(=O)C12CC3CC(C1)C(NC(=O)C1(NS(=O)(=O)c4ccccc4N)CCCCC1)C(C3)C2` (stereo not shown) [compound 220, N-4-(1-(2-aminophenylsulfonamido)cyclohexanecarboxyamido)adamantane-1-carboxyamide], the IC50 was 0.032 µM at human 11β-HSD1 and 0.266 µM on mouse 11β-HSD1.

In the case of `CC(C)(NS(=O)(=O)c1cccnc1Cl)C(=O)NC1C2CC3CC1CC(C(N)=O)(C3)C2` (stereo not shown) [compound 96, N-4-(2-(2-chloropyridine-3-sulfonamido)-2-methylpropanamido)adamantane-1-carboxyamide], the values for the half-inhibitory concentration (IC50) against human 11β-HSD1 and against mouse 11β-HSD1 were 0.223 µM and 0.289 µM, respectively.

As to `O=C(NCCO)C12CC3CC(C1)C(NC(=O)C1(NS(=O)(=O)c4ccccc4Cl)CCC1)C(C3)C2` (stereo not shown) [compound 232], the IC50 at human 11β-HSD1 and against mouse 11β-HSD1 was greater than 2.5 µM each time.

For the compound `CC(C)(NS(=O)(=O)c1ccccc1C(N)=O)C(=O)NC1C2CC3CC(C2)CC1C3` (stereo not shown) [compound 56], the IC50 is 0.532 µM at human 11β-HSD1 and greater than 2.5 µM on mouse 11β-HSD1.

As to `COc1ccc(S(=O)(=O)NC(C)(C)C(=O)NC2C3CC4CC2CC(O)(C4)C3)cc1` (stereo not shown) [compound 71, N-(5-hydroxyadamantane-2-yl)-2-methyl-2-(4-methoxyphenylsulfonamido)propanamide], the half-inhibitory concentration (IC50) amounted to 0.196 µM on human 11β-HSD1 and 0.631 µM at mouse 11β-HSD1.

Take `CCCc1ccc(S(=O)(=O)NC(C)(C)C(=O)NC2C3CC4CC2CC(C(N)=O)(C4)C3)cc1` (stereo not shown) [compound 99, N-4-(2-(4-propylphenylsulfonamido)-2-methylpropanamido)adamantane-1-carboxyamide]: the IC50 came out at 0.047 µM against human 11β-HSD1 and 0.124 µM against mouse 11β-HSD1.

As to `NC(=O)C12CC3CC(C1)C(NC(=O)C1(NS(=O)(=O)c4ccccc4)CCC1)C(C3)C2` (stereo not shown) [compound 148, N-4-(1-(phenylsulfonamido)cyclobutanecarboxyamido)adamantane-1-carboxyamide], the values for the IC50 at human 11β-HSD1 and against mouse 11β-HSD1 were 0.163 µM and 0.056 µM, respectively.

Regarding `Cc1ccc(S(=O)(=O)NC(C)(C)C(=O)NC2C3CC4CC(C3)CC2C4)cc1F` (stereo not shown) [compound 27, N-(adamantane-2-yl)-2-methyl-2-(4-methyl-3-fluorophenylsulfonamido)propanamide], the results for the 50% inhibitory concentration (IC50) at human 11β-HSD1 and at mouse 11β-HSD1 were 0.555 µM and 1.12 µM, respectively.

In the case of `CN(C(C)(C)C(=O)NC1C2CC3CC1CC(O)(C3)C2)S(=O)(=O)c1ccccc1N` (stereo not shown) [compound 225], the concentration for half-maximal inhibition (IC50) against human 11β-HSD1 was found to be 0.011 µM; at mouse 11β-HSD1, 0.083 µM.

For `CCN(C(C)(C)C(=O)NC1C2CC3CC1CC(C(N)=O)(C3)C2)S(=O)(=O)c1ccccc1F` (stereo not shown) [compound 211, N-4-(2-(2-fluoro-N-ethylphenylsulfonamido)-2-methylpropanamido)adamantane-1-carboxyamide], the IC50 was found to be 0.006 µM on human 11β-HSD1 and 0.079 µM at mouse 11β-HSD1.

Consider `CC(C)(NS(=O)(=O)c1cccc([N+](=O)[O-])c1)C(=O)NC1C2CC3CC1CC(O)(C3)C2` (stereo not shown) [compound 77, N-(5-hydroxyadamantane-2-yl)-2-methyl-2-(3-nitrophenylsulfonamido)propanamide], for which the IC50 against human 11β-HSD1 was determined as 0.492 µM; against mouse 11β-HSD1, 0.575 µM.

Turning to `NC(=O)C12CC3CC(C1)C(NC(=O)C1(NS(=O)(=O)c4ccccc4OC(F)(F)F)CCC1)C(C3)C2` (stereo not shown) [compound 160, N-4-(1-(2-trifluoromethoxyphenylsulfonamido)cyclobutanecarboxyamido)adamantane-1-carboxyamide], the IC50 was found to be 0.018 µM against human 11β-HSD1 and 0.113 µM at mouse 11β-HSD1.

As to `CC(C)(NS(=O)(=O)c1ccc(Br)cc1OC(F)(F)F)C(=O)NC1C2CC3CC1CC(C(N)=O)(C3)C2` (stereo not shown) [compound 100, N-4-(2-(2-trifluoromethoxy-4-bromophenylsulfonamido)-2-methylpropanamido)adamantane-1-carboxyamide], the IC50 is 0.018 µM against human 11β-HSD1 and 0.21 µM on mouse 11β-HSD1.

For `CC(C)(NS(=O)(=O)c1ccc(F)cc1Cl)C(=O)NC1C2CC3CC(C2)CC1C3` (stereo not shown) [compound 55, N-(adamantane-2-yl)-2-methyl-2-(4-fluoro-2-chlorophenylsulfonamido)propanamide], the half-maximal inhibitory concentration (IC50) against human 11β-HSD1 was 0.039 µM; at mouse 11β-HSD1, 0.186 µM.

With `CCCN(C(C)(C)C(=O)NC1C2CC3CC1CC(C(N)=O)(C3)C2)S(=O)(=O)c1ccccc1C(F)(F)F` (stereo not shown) [compound 218, N-4-(2-(2-trifluoromethyl-N-propylphenylsulfonamido)-2-methylpropanamido)adamantane-1-carboxyamide], the 50% inhibitory concentration (IC50) is 0.053 µM against human 11β-HSD1 and 0.462 µM against mouse 11β-HSD1.

As for `CC(C)(NS(=O)(=O)Cc1ccccc1[N+](=O)[O-])C(=O)NC1C2CC3CC(C2)CC1C3` (stereo not shown) [compound 22, N-(adamantane-2-yl)-2-methyl-2-((2-nitrophenyl)methylsulfonamido)propanamide], the half-maximal inhibitory concentration (IC50) on human 11β-HSD1 worked out at 0.033 µM; against mouse 11β-HSD1, 1.06 µM.

As to `CC(C)(NS(=O)(=O)c1cccc2cccnc12)C(=O)NC1C2CC3CC(C2)CC1C3` (stereo not shown) [compound 17, N-(adamantane-2-yl)-2-methyl-2-(quinoline-8-sulfonamido)propanamide], the IC50 against human 11β-HSD1 and against mouse 11β-HSD1 was 0.008 µM throughout.

For `CN(C(C)(C)C(=O)NC1C2CC3CC1CC(C(N)=O)(C3)C2)S(=O)(=O)c1ccccc1C(F)(F)F` (stereo not shown) [compound 193, N-4-(2-(2-trifluoromethyl-N-methylphenylsulfonamido)-2-methylpropanamido)adamantane-1-carboxyamide], the IC50 on human 11β-HSD1 was 0.007 µM; at mouse 11β-HSD1 it was 0.012 µM.

With `Cc1ccccc1S(=O)(=O)NC1(C(=O)NC2C3CC4CC2CC(C(N)=O)(C4)C3)CCC1` (stereo not shown) [compound 156, N-4-(1-(2-methylphenylsulfonamido)cyclobutanecarboxyamido)adamantane-1-carboxyamide], the IC50 on human 11β-HSD1 was 0.046 µM; at mouse 11β-HSD1 it was 0.138 µM.

With `CCN(C(C)(C)C(=O)NC1C2CC3CC1CC(C(N)=O)(C3)C2)S(=O)(=O)c1ccccc1C(F)(F)F` (stereo not shown) [compound 210, N-4-(2-(2-trifluoromethyl-N-ethylphenylsulfonamido)-2-methylpropanamido)adamantane-1-carboxyamide], the IC50 on human 11β-HSD1 came to 0.006 µM; against mouse 11β-HSD1, 1.44 µM.

`CN(C(C)(C)C(=O)NC1C2CC3CC1CC(O)(C3)C2)S(=O)(=O)c1cccc(Cl)c1Cl` (stereo not shown) [compound 203, N-(5-hydroxyadamantane-2-yl)-2-(2,3-dichloro-N-methylphenylsulfonamido)-2-methylpropanamide]: the IC50 turned out to be 0.01 µM on human 11β-HSD1 and 0.039 µM against mouse 11β-HSD1.

In the case of `CCN(C(C)(C)C(=O)NC1C2CC3CC1CC(C(N)=O)(C3)C2)S(=O)(=O)c1c(F)cccc1F` (stereo not shown) [compound 213, N-4-(2-(2,6-difluoro-N-ethylphenylsulfonamido)-2-methylpropanamido)adamantane-1-carboxyamide], the IC50 on human 11β-HSD1 came to 0.005 µM; on mouse 11β-HSD1, 0.235 µM.

Turning to `CC(=O)c1ccc(S(=O)(=O)NC(C)(C)C(=O)NC2C3CC4CC(C3)CC2C4)cc1` (stereo not shown) [compound 38, N-(adamantane-2-yl)-2-methyl-2-(4-acetylphenylsulfonamido)propanamide], the IC50 at human 11β-HSD1 worked out at 0.829 µM; against mouse 11β-HSD1 it was 0.847 µM.

Consider `CC(C)(NS(=O)(=O)c1ccccc1Br)C(=O)NC1C2CC3CC(C2)CC1C3` (stereo not shown) [compound 12, N-(adamantane-2-yl)-2-methyl-2-(2-bromophenylsulfonamido)propanamide], for which the results for the IC50 against human 11β-HSD1 and at mouse 11β-HSD1 were 0.02 µM and 0.051 µM, respectively.

As for `CC(C)(NS(=O)(=O)Cc1ccccc1)C(=O)NC1C2CC3CC(C2)CC1C3` (stereo not shown) [compound 63, N-(adamantane-2-yl)-2-methyl-2-(phenylmethylsulfonamido)propanamide], the 50% inhibitory concentration (IC50) on human 11β-HSD1 stood at 0.039 µM; on mouse 11β-HSD1 it was 0.283 µM.

As to `O=C(NC1C2CC3CC(C2)CC1C3)C1(NS(=O)(=O)c2ccccc2C(F)(F)F)CCC1` (stereo not shown) [compound 140, N-(adamantane-2-yl)-1-(2-trifluoromethylphenylsulfonamido)cyclobutanecarboxyamide], the half-inhibitory concentration (IC50) worked out at 0.184 µM against human 11β-HSD1 and 1.68 µM at mouse 11β-HSD1.

In the case of `CC(C)(NS(=O)(=O)c1ccccc1F)C(=O)NC1C2CC3CC1CC(O)(C3)C2` (stereo not shown) [compound 69, N-(5-hydroxyadamantane-2-yl)-2-methyl-2-(2-fluorophenylsulfonamido)propanamide], the IC50 on human 11β-HSD1 came out at 0.118 µM; against mouse 11β-HSD1 it was 0.258 µM.

With `NC(=O)C12CC3CC(C1)C(NC(=O)C1(NS(=O)(=O)c4cccc(Cl)c4Cl)CCCC1)C(C3)C2` (stereo not shown) [compound 176, N-4-(1-(2,3-dichlorophenylsulfonamido)cyclopentanecarboxyamido)adamantane-1-carboxyamide], the 50% inhibitory concentration (IC50) on human 11β-HSD1 came out at 0.009 µM; on mouse 11β-HSD1, 0.007 µM.

`NC(=O)C12CC3CC(C1)C(NC(=O)C1(NS(=O)(=O)c4ccccc4C(F)(F)F)CCCC1)C(C3)C2` (stereo not shown) [compound 172, N-4-(1-(2-trifluoromethylphenylsulfonamido)cyclopentanecarboxyamido)adamantane-1-carboxyamide]: the results for the IC50 against human 11β-HSD1 and against mouse 11β-HSD1 were 0.016 µM and 0.053 µM, respectively.

(Values after patent publication US9073830B2 (Hyundai Pharm Co., Ltd., priority 2011, dated 2015).)
